Laboratory results: patent publication US20250325687A1, “CONJUGATE COMPRISING TOLL-LIKE RECEPTOR AGONIST” (MABSOFT THERAPEUTICS (SHANGHAI) CO., LTD., priority 2022, published 2025)
Like-named read-outs stand apart in the source and are kept apart here.

How the values were obtained:
Assay type in all cases: cell-based
[1] = target: T1, hTLR7 (human Toll-like receptor 7) (Homo sapiens, UniProt Q9NYK1); assay: hTLR7 cell assay (HEK-Blue hTLR7 reporter cells); details: 24 hours, OD 650 nm
T1 construct: host or cells: HEK-Blue hTLR7 (HEK293-derived reporter cells)
T1 sequence (Q9NYK1 27-1049): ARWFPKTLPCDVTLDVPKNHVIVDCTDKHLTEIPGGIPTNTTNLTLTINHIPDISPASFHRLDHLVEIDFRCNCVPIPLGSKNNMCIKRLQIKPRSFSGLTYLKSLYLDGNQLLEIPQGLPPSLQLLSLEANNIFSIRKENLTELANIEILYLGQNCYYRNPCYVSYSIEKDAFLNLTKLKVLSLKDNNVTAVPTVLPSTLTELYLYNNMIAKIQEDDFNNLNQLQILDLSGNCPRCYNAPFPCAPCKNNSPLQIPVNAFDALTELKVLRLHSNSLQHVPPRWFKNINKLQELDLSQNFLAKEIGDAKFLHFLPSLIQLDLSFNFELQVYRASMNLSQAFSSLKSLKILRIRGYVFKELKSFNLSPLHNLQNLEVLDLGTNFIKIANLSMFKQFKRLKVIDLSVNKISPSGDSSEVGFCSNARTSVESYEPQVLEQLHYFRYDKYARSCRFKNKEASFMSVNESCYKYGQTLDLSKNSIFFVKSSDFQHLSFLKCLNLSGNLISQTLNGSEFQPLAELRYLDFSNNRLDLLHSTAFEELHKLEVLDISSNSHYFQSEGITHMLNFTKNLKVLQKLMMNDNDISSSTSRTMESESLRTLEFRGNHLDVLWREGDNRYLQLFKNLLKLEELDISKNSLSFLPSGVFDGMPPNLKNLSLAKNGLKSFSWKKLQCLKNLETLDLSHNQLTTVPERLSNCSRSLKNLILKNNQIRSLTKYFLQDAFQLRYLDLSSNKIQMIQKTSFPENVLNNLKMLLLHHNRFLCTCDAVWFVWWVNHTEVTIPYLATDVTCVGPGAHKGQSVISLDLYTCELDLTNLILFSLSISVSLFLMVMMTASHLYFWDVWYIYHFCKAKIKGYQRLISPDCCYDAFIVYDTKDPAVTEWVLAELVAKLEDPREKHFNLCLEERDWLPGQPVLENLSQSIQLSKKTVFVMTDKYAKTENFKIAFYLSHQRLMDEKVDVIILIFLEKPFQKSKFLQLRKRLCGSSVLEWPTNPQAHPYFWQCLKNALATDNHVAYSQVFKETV
Method: (§1) The payload compounds of Formula (II′) were assayed to evaluate their agonistic activity on hTLR7 (human Toll-like receptor 7) and hTLR8 (human Toll-like receptor 8). Reporter cells lines (HEK-Blue hTLR7 and HEK-Blue hTLR8) were obtained from InvivoGen. Cells were cryopreserved in liquid nitrogen per supplier's instruction. Upon test, the cells were thawed, passaged and cultured in the growth media of DMEM supplemented with 10% fetal bovine serum, 1×NEAA, 1 mM Pyruvate, 2 mM glutamine, […] in the presence of the following antibiotics, as shown as Table 1. Test compounds (at desired concentrations diluted) were added to the 96-well assay plate, 0.5 μL per well. Reporter cells were harvested from the tissue culture flasks by incubation in PBS at 37° C. for two minutes after the media in the flask is removed and cells rinsed with PBS. Cells were counted and diluted in the HEK-Blue Detection media at 50000 cells/mL and incubated for 24 hours at 37° C., in a 5% CO2 humidified incubator. Then 20 μL of cell supernatant were added to the assay plate containing the 180 µL of QUANTI-Blue, incubated for 1 hour at 37° C. Optical density at 650 nm was analyzed using an Envision (Perkin Elmer) plate reader.

[2] = system: human PBMC (human peripheral blood mononuclear cells); assay: PBMC screening assay: induction of TNF-α production; details: read-out: EC50 (μM) TNF-α (hPBMC)
Method: The payload compounds of Formula (II′) were assayed to evaluate the induction of TNF-α production in human PBMC (human peripheral blood mononuclear cells).
Human peripheral blood mononuclear cells (PBMC) were obtained from Allcells. […] PBMC were incubated for 24 hours at 37° C. in a 5% CO2 humidified incubator. The following day PBMC plates were centrifuged at 500×g for 5 minutes and the growth media was removed. 200 μL of compound prepared in growth media at a series of diluted concentrations ranging from 2.54 nM to 50 μM were added to PBMC in duplicate and incubated for 24 hours at 37° C. in a 5% CO2 incubator. Prior to supernatant harvest, cells were spun at 500×g for 5 minutes to remove cell debris. TNF-α activity was assessed in the supernatant by ELISA (Elabscience) per the manufacturer's instructions. Optical density at 450 nm (ELISA) was analyzed using a plate reader.

[3] = target: T2, hTLR8 (human Toll-like receptor 8) (Homo sapiens, UniProt Q9NR97); assay: hTLR8 cell assay (HEK-Blue hTLR8 reporter cells); details: 24 hours, OD 650 nm
T2 construct: host or cells: HEK-Blue hTLR8 (HEK293-derived reporter cells)
T2 sequence (Q9NR97 27-1041): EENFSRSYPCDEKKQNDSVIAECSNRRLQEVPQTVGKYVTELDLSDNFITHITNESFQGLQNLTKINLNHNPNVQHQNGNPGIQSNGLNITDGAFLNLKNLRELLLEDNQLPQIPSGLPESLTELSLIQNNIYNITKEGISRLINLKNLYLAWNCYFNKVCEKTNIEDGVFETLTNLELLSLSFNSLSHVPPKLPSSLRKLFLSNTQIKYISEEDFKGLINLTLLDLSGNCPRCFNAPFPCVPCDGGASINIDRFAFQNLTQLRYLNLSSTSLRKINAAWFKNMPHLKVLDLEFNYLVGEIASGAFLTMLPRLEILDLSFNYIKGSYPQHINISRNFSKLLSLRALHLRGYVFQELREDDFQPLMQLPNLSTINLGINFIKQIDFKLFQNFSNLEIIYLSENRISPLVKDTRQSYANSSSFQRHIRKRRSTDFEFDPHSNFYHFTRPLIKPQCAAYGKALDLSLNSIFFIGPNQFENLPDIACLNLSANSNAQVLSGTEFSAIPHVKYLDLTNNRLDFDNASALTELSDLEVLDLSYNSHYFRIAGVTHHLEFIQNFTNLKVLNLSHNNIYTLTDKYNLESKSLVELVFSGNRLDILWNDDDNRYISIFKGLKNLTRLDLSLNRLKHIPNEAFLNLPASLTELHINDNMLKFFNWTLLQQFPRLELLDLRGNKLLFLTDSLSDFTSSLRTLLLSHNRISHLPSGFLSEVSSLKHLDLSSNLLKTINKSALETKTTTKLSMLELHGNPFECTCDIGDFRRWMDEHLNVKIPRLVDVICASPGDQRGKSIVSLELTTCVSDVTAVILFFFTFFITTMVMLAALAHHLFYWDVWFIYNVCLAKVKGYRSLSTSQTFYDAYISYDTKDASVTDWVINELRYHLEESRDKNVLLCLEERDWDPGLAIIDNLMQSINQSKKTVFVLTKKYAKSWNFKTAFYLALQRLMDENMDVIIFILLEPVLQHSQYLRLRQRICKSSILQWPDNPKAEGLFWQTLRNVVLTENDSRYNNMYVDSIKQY
Method: as §1

[4] = human PBMC, 24 hours, TNF-α by ELISA, class symbols

| Compound | EC50 [1] [nM] | EC50 ([2]; Homo sapiens, PBMC, 24 h) [µM] | EC50 [3] [nM] | EC50 [2, 4] [µM] |
| --- | --- | --- | --- | --- |
| CCOCc1nc2c(N)nc3cc(Cc4ccc(CCN)cc4)ccc3c2n1CC(C)(C)O [Compound 2, 1-(4-amino-7-(4-(2-aminoethyl)benzyl)-2-(ethoxymethyl)-1H-imidazo[4,5-c]quinolin-1-yl)-2-methylpropan-2-ol] | 1000 to 10000 | > 0.64 | 5000 to 20000 |  |
| CCOCc1nc2c(N)nc3cc(Cc4ccc(CCCN)cc4)ccc3c2n1CC(C)(C)O [Compound 3, 1-(4-amino-7-(4-(3-aminopropyl)benzyl)-2-(ethoxymethyl)-1H-imidazo[4,5-c]quinolin-1-yl)-2-methylpropan-2-ol] | 1000 to 10000 | > 0.64 | 5000 to 20000 |  |
| CCOCc1nc2c(N)nc3cc(Cc4cccc(CN)c4)ccc3c2n1CC(C)(C)O [Compound 4, 1-(4-amino-7-(3-(aminomethyl)benzyl)-2-(ethoxymethyl)-1H-imidazo[4,5-c]quinolin-1-yl)-2-methylpropan-2-ol] | < 1000 | > 0.64 | < 5000 |  |
| CCC[C@@H](C)c1nc2c(N)nc3cc(Cc4ccc(CCN)cc4)ccc3c2n1CC(C)(C)O [Compound 9, (R)-1-(4-amino-7-(4-(2-aminoethyl)benzyl)-2-(pentan-2-yl)-1H-imidazo[4,5-c]quinolin-1-yl)-2-methylpropan-2-ol] | > 10000 | < 0.64 | > 20000 |  |
| CCCCc1nc2c(N)nc3cc(Cc4ccc(CCCN)cc4)ccc3c2n1CC(C)(C)O [Compound 15, 1-(4-amino-7-(4-(3-aminopropyl)benzyl)-2-butyl-1H-imidazo[4,5-c]quinolin-1-yl)-2-methylpropan-2-ol] | 1000 to 10000 |  | < 5000 | < 0.64 |
| CCCCc1nc2c(N)nc3cc(Cc4cccc(CN)c4)ccc3c2n1CC(C)(C)O [Compound 16, 1-(4-amino-7-(3-(aminomethyl)benzyl)-2-butyl-1H-imidazo[4,5-c]quinolin-1-yl)-2-methylpropan-2-ol] | < 1000 |  | < 5000 | < 0.64 |
| CCCCc1nc2c(N)nc3cc(Cc4cccc(CCN)c4)ccc3c2n1CC(C)(C)O [Compound 17, 1-(4-amino-7-(3-(2-aminoethyl)benzyl)-2-butyl-1H-imidazo[4,5-c]quinolin-1-yl)-2-methylpropan-2-ol] | < 1000 |  | < 5000 | > 0.64 |
| CCCCc1nc2c(N)nc3cc(Cc4cccc(CCCN)c4)ccc3c2n1CC(C)(C)O [Compound 18, 1-(4-amino-7-(3-(3-aminopropyl)benzyl)-2-butyl-1H-imidazo[4,5-c]quinolin-1-yl)-2-methylpropan-2-ol] | < 1000 | > 0.64 | 5000 to 20000 |  |
| CCCCc1nc2c(N)nc3cc(Cc4ccc(CCN)cc4)ccc3c2n1CC(C)(C)O [Compound 19, 1-(4-amino-7-(4-(2-aminoethyl)benzyl)-2-butyl-1H-imidazo[4,5-c]quinolin-1-yl)-2-methylpropan-2-ol] | < 1000 | < 0.64 | < 5000 |  |
| CCCCc1nc2c(N)nc3cc(Cc4cccc(CNC)c4)ccc3c2n1CC(C)(C)O [Compound 20, 1-(4-amino-2-butyl-7-(3-((methylamino)methyl)benzyl)-1H-imidazo[4,5-c]quinolin-1-yl)-2-methylpropan-2-ol] | < 1000 |  | < 5000 | < 0.64 |
| CCOCc1nc2c(N)nc3cc(Cc4ccccc4)ccc3c2n1CC(C)(C)OCCN [Compound 23, 1-(2-(2-aminoethoxy)-2-methylpropyl)-7-benzyl-2-(ethoxymethyl)-1H-imidazo[4,5-c]quinolin-4-amine] | 1000 to 10000 |  | < 5000 | > 0.64 |
| CCC[C@@H](C)c1nc2c(N)nc3cc(Cc4ccccc4)ccc3c2n1CC(C)(C)OCCN [Compound 30, (R)-1-(2-(2-aminoethoxy)-2-methylpropyl)-7-benzyl-2-(pentan-2-yl)-1H-imidazo[4,5-c]quinolin-4-amine] | 1000 to 10000 |  | < 5000 | > 0.64 |
| CCCC(C)c1nc2c(N)nc3cc(Cc4ccccc4)ccc3c2n1CC(C)(C)OCCCN (stereo not shown) [Compound 32, 1-(2-(3-aminopropoxy)-2-methylpropyl)-7-benzyl-2-(pentan-2-yl)-1H-imidazo[4,5-c]quinolin-4-amine] | 1000 to 10000 |  | < 5000 | > 0.64 |
| CCOCc1nc2c(N)nc3cc(Cc4ccccc4)ccc3c2n1CC1(OCCN)CC1 [Compound 44] | 1000 to 10000 | > 0.64 | < 5000 |  |
| CC(C)(O)Cn1c(CCCC(F)(F)F)nc2c(N)nc3cc(Cc4cccc(CN)c4)ccc3c21 [Compound 51, 1-(4-amino-7-(3-(aminomethyl)benzyl)-2-(4,4,4-trifluorobutyl)-1H-imidazo[4,5-c]quinolin-1-yl)-2-methylpropan-2-ol] | < 1000 |  | < 5000 | > 0.64 |
| CCOCc1nc2c(N)nc3cc(Cc4ccccc4)ccc3c2n1CC(C)(C)O [Compound 171, 1-(4-amino-7-benzyl-2-(ethoxymethyl)-1H-imidazo[4,5-c]quinolin-1-yl)-2-methylpropan-2-ol] |  |  |  | < 0.64 |
